Experimental data from patent US20100248272A1, “Method for identifying Smk box riboswitch modulating compounds” (Cornell University, priority 2009, published 2010).
pKd: −log10 of the molar value. Values joined by “and” are separate entries in the source; they are usually repeats but may differ in a detail not shown here. Equal values may be shown once. “Also recorded” adds a separate entry of the source.

Tests used:
SMK box riboswitch = test: Competition binding assay SAM versus SAH; parameters: species or system E. faecalis; conditions: >100-fold excess of SAH over SAM
Source text: FIGS. 6A, 6B. Effects of SMK box riboswitch mutagenesis on SAM binding and apparent SAM binding constant (Ka) determination. (A) Effects of mutation (with s.d.) on SAM binding by size-exclusion filtration assay, as described. (B) SAM and SAH Kd determination by competition binding assay.
(§1) The Kd value for the full-length SMK transcript was further confirmed by fluorescence-quenching assays, as described below and shown in FIG. 11.

[1] = test system: wild-type 15-118 metK leader RNA (bipartite, 2-AP at A29); test: Kd measurement by 2-AP fluorescence quenching; assay type: binding, E. faecalis; conditions: for quenching of 2-AP fluorescence: wild-type RNA
Method: (§2) FIG. 11. […] Increasing concentrations of SAM were added to bipartite metK leader RNA containing an internal 2-AP modification at residue A29. 2-AP fluorescence at steady-state was measured at 375 nm with an excitation wavelength of 310 nm. […] Percent quenching (ΔF/F0×100) represents the change in fluorescence normalized to the initial fluorescence observed in the absence of SAM.
(§3) For this, a bipartite RNA comprised of two half RNAs was used, which corresponds to positions 15-46 and 47-118. The two RNA halves are predicted to anneal through extensive base pairing in the P1-P3 helices to form the full-length metK leader RNA corresponding to positions 15-118, with a nick immediately upstream of residue G47 at the top of the P3 stein loop.
(§4) A 2-aminopurine (2-AP) modification was incorporated into the upstream RNA at residue A29 to monitor local conformational changes occurring at this position in response to SAM binding using florescence spectroscopy.

[2] = biological target: full-length E. faecalis metK RNA (wild-type 15-118 metK leader sequence); test: Apparent Kd determination by size-exclusion filtration (modified SAM binding assay); conditions: full-length transcript, positions 15-118; [3H]-SAM
Method: (§5) The apparent equilibrium dissociation constants (Kd values) for the wild-type 15-118 metK leader sequence and the 53-nucleotide crystallization construct were determined using a modified SAM binding assay (J. Tomsic, et al., J. Bacteriol., 190, 823-833 (2007)). Briefly, T7 RNA polymerase transcribed RNA (1 μM) in 1× transcription buffer was refolded as described above and incubated with [^3H]-SAM ranging in concentration from 0.02 to 10 μM. Binding reactions were loaded onto Nanosep 3K Omega filters (Pall Life Sciences) and centrifuged briefly at 14,000 g to avoid large volume changes. The concentration of the RNA-[^3H]-SAM complex retained by the filter and the unbound SAM present in the flow through were determined by scintillation counting of known volumes, and nonlinear regression analyses were performed using Kaleida-Graph Version 3.51 (Synergy Software). Apparent Kd values represent the averages of at least two independent experiments for each construct with a margin of error≦5%.
as §1

[3] = biological target: SMK6 crystallization construct (53-nucleotide SMK box riboswitch); test: as above; parameters: species or system E. faecalis; conditions: 53-nt crystallization construct SMK6; [3H]-SAM
Method: as §5, §1

[4] = test system: E. faecalis SMK box A93C mutant RNA; conditions: A93C mutation; cited from earlier work
[5] = test system: U72C mutant metK leader RNA; test: 2-AP fluorescence quenching; assay type: binding, E. faecalis; conditions: SAM concentrations up to 100 μM
Method: as §2, §3, §4

[6] = test system: 30S ribosomal subunit on the SMK box mRNA; test: Ribosome toeprinting analysis; assay type: biochemical; conditions: in the presence of ligand
[7] = test system: E. faecalis SMK box U22G mutant RNA; conditions: U22G mutation; cited from earlier work
[8] = test system: E. faecalis SMK box C25U G90A double mutant RNA; test: In vitro SAM binding assay (size-exclusion filtration); conditions: C25U G90A double mutation
Source text: (§6) DNA templates corresponding to positions 15-118 (relative to the predicted transcription start site) of the E. faecalis metK leader were constructed by ligating overlapping pairs of complementary oligonucleotides, including a T7 RNA polymerase promoter sequence, as previously described (M. R. Yousef, et al., RNA, 9, 1148-1156 (2003) and B. A., McDaniel, et al., Mol. Microbiol., 57, 1008-1021 (2005)). Ligated products were amplified by PCR and RNAs were synthesized by T7 RNA polymerase transcription using an AmpliScribe T7 High Yield Transcription Kit (Epicentre Biotechnologies). RNAs (3 μM) in 1× transcription buffer (F. J. Grundy, et al., Nucleic Acids Res., 30, 1646-1655 (2002)) were heated to 65° C. for 5 minutes and slow-cooled to 40° C., followed by addition of radiolabeled SAM (3 μM [methyl-3H]-SAM, 15 Ci mmol^−1; GE Healthcare) in a total reaction volume of 40 μL, Binding reactions were incubated at room temperature (20-25° C.) for 15 minutes followed by passage through a Nanosep 10K Omega filter (Pall Life Sciences) by centrifugation at 14,000 g for 2.5 minutes. Filters were washed four times with 40 μL 1× transcription buffer to remove unbound SAM, and material retained by the filter was collected, mixed with Packard BioScience Ultima Gold scintillation fluid, and counted in a Packard Tri-Carb 2100TR liquid scintillation counter. No SAM was retained by the filter in the absence of RNA.

[9] = test system: E. faecalis SMK box U65 deletion mutant RNA; test: as above
Source text: as §6

[10] = test system: E. faecalis SMK box RNA with poly(A)6 linker and G88 and G89 mutated to adenosine; test: as above; conditions: poly(A)6 linker plus G88 and G89 to adenosine
Source text: as §6

[11] = test system: E. faecalis SMK box C76U G88A mutant RNA; test: as above; conditions: C76U and G88A combined
Source text: as §6

[12] = test system: E. faecalis SMK box C24U G91A double mutant RNA; test: as above; conditions: C24U G91A double mutation
Source text: as §6

[13] = test system: E. faecalis SMK box C24G mutant RNA; test: as above; conditions: C24G mutation
Source text: as §6

[14] = test system: E. faecalis SMK box C76U mutant RNA; test: as above; conditions: C76U wobble mutation
Source text: as §6

[15] = test system: E. faecalis SMK box G26A mutant RNA; test: as above
Source text: as §6

[16] = test system: E. faecalis SMK box U72C mutant RNA; test: as above
Source text: as §6

[17] = test system: E. faecalis SMK box U65C mutant RNA; test: as above; conditions: U65C mutation
Source text: as §6

[18] = test system: E. faecalis SMK box A73G mutant RNA; test: as above; conditions: A73G mutation
Source text: as §6

[19] = test system: E. faecalis SMK box C25U mutant RNA; test: as above
Source text: as §6

[20] = test system: E. faecalis SMK box G90A mutant RNA; test: as above; conditions: G90A mutation (C25•A90 mismatch)
Source text: as §6

[21] = test system: E. faecalis SMK box G88A mutant RNA; test: as above; conditions: G88A mismatch mutation
Source text: as §6

[22] = test system: E. faecalis SMK box RNA with linker region replaced by poly(A)6; test: as above; conditions: 11-nt linker replaced with poly(A)6
Source text: as §6

[23] = test system: E. faecalis SMK box U22G A93C double mutant RNA; conditions: cited from earlier work
[24] = test system: E. faecalis metK-lacZ fusion WT; conditions: cells grown in the presence of high methionine concentrations; previously shown; cited from earlier work
[25] = test system: E. faecalis metK-lacZ fusion C25U
Method: (§7) In this experiment, in vivo lacZ reporter gene assays were conducted as previously described (R. T. Fuchs, et al., 2006, Ibid. and R. T. Fuchs, et al., 2007, Ibid.). Enterococcus faecalis metK leader region constructs, which included the first 15 nt of the coding region, were positioned downstream of the highly expressed B. subtilis glyQS promoter. The resulting DNA fragment was inserted into a lacZ fusion vector (pFG328) to generate an in-frame metK-lacZ translational fusion in which the first five codons of metK were fused to codon 18 of lacZ. The constructs were introduced into the chromosome of B. subtilis strain BR151 (metB10 lys-3trpC2) by integration into an SPβ prophage. Bacillus subtilis strains containing the lacZ fusions were grown at 37° C. in Spizizen minimal medium containing methionine ([…]) until early exponential growth. The cells were harvested by centrifugation at 8,000 g and resuspended in Spizizen medium either with or without methionine, and samples were collected at 1-h intervals and assayed for β-galactosidase activity after toluene permeabilization of the cells.

[26] = test system: E. faecalis metK-lacZ fusion U22G
Method: as §7

[27] = test system: E. faecalis metK-lacZ fusion C25U + G90A
Method: as §7

[28] = test system: E. faecalis metK-lacZ fusion U22G + A93C
Method: as §7

[29] = test system: E. faecalis metK-lacZ fusion C24U
Method: as §7

[30] = test system: E. faecalis metK-lacZ fusion A93C
Method: as §7

[31] = test system: E. faecalis metK-lacZ fusion C24G
Method: as §7

[32] = test system: E. faecalis metK-lacZ fusion C24U + G91A
Method: as §7

[33] = test system: E. faecalis metK-lacZ fusion WT
Method: as §7

[34] = Spizizen medium with methionine

Nc1ncnc2c1ncn2[C@@H]1O[C@H](CSCC[C@H](N)C(=O)O)[C@@H](O)[C@H]1O [SAH, S-adenosyl-L-homocysteine]
competition by unlabeled SAH (SMK box riboswitch): no competition
quenching of 2-AP fluorescence [1]: not observed

C[S+](CC[C@H](N)C(=O)[O-])C[C@H]1O[C@@H](n2cnc3c(N)ncnc32)[C@H](O)[C@@H]1O (some centres unmarked) [SAM, S-adenosyl methionine]
pKd [2]: 6.07
pKd [3]: 6.24
SAM binding in vitro [4]: loss of SAM binding
quenching of 2-AP fluorescence [5]: No quenching; also recorded: no substantial change in fluorescence
correct positioning of the 30S ribosomal subunit on the SMK box mRNA [6]: reduced
SAM binding in vitro [7]: loss of SAM binding
SAM binding activity [8]: loss of SAM binding activity
decrease in SAM binding activity [9]: 20 fold
SAM binding [10]: dramatically reduced
SAM binding, of the wild-type level [11]: 32%
SAM binding [12]: restored SAM binding
SAM binding [13]: loss of SAM binding
SAM binding activity retained [14]: 59%
reduction of SAM binding [15]: five
SAM binding in the filtration assay ([16]; U72C RNA): loss of SAM binding
decrease in SAM binding activity ([16]; U72C mutation): 70 fold
decrease in SAM binding activity [17]: 5 fold
reduction in SAM binding activity [18]: 80 fold
SAM binding activity ([19]; C25U mutation (U25-G90 wobble pair)): 63%
SAM binding in vitro ([19]; C25U substitution): modest reduction
SAM binding activity, of the wild type [20]: 1.3%
reduction in SAM binding activity [21]: 75 fold
SAM binding activity [22]: did not affect
SAM binding [23]: restores SAM binding
pKd ([1]; 2-AP fluorescence, excitation 310 nm, emission 375 nm, read-out: apparent Kd): 5.99 and 6.00
quenching of 2-AP fluorescence [1]: concentration-dependent quenching

CSCC[C@H](N)C(=O)O [Met, methionine]
reduction in expression of lacZ reporter [24]: five
Ratio (−Met/+Met) [25]: 2.8
Expression of metK-lacZ fusion, +Met (β-galactosidase activity) [25, 34]: 80 +/− 5.0
Ratio (−Met/+Met) [26]: 1.4
Expression of metK-lacZ fusion, +Met (β-galactosidase activity) [26, 34]: 160 +/− 13
Ratio (−Met/+Met) [27]: 0.95
Expression of metK-lacZ fusion, +Met (β-galactosidase activity) [27, 34]: 82 +/− 16
Ratio (−Met/+Met) [28]: 4.4
Expression of metK-lacZ fusion, +Met (β-galactosidase activity) [28, 34]: 2.5 +/− 0.72
Ratio (−Met/+Met) [29]: 1.6
Expression of metK-lacZ fusion, +Met (β-galactosidase activity) [29, 34]: 200 +/− 22
Ratio (−Met/+Met) [30]: 1.8
Expression of metK-lacZ fusion, +Met (β-galactosidase activity) [30, 34]: 42 +/− 1.0
Ratio (−Met/+Met) [31]: 1.2
Expression of metK-lacZ fusion, +Met (β-galactosidase activity) [31, 34]: 95 +/− 6.1
Ratio (−Met/+Met) [32]: 1.5
Expression of metK-lacZ fusion, +Met (β-galactosidase activity) [32, 34]: 15 +/− 2.9
Ratio (−Met/+Met) [33]: 5.0
Expression of metK-lacZ fusion, +Met (β-galactosidase activity) [33, 34]: 24 +/− 5.5
